Each block holds one compound with its values, some of them ahead of it.
Assays:
Glut1 = target: T1, Glut1 (Homo sapiens, UniProt P11166); experiment: Bidirectional transport assay in the human in vitro BBB model, Glut1 substrate; format: in vitro ADME; conditions: 2-NBDG 100 μg/ml
T1 construct: endogenous in cells; host or cells: HBMEC/ci18 co-cultured with HBPC/ci37 and HASTR/ci35 (transwell)
T1 sequence (P11166 1-492): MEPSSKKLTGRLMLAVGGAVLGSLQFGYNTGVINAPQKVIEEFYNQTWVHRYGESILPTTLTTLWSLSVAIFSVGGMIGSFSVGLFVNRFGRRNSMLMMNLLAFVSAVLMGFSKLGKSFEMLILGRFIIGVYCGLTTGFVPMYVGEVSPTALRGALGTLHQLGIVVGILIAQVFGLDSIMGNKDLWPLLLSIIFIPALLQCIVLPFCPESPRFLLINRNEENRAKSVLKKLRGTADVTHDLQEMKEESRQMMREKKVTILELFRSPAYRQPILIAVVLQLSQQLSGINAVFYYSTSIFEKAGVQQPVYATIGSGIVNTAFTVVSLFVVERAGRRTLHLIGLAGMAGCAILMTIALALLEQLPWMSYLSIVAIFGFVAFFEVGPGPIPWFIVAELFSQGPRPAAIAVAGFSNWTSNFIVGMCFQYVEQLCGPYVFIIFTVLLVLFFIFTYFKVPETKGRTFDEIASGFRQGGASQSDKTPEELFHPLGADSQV
Protocol: (§1) In vitro human BBB models were developed by combining three immortalized cell lines). Briefly, HBPC/ci37 cells were seeded on the bottom side of the collagen IV- and Fibronectin-coated polycarbonate membrane of a transwell insert (Millicell cell culture insert 24-well hanging inserts, 0.4 μm […]; Merck, Darmstadt, Germany) at a density of 1.0 × 10^4 cells/insert. The cells were then cultured for 1 day to allow them to attach firmly. HASTR/ci35 cells were seeded (5.0 × 10^4 cells/well) on collagen I-coated 24-well plates (Greiner Bio-one, Frickenhausen, Germany) and maintained in astrocyte culture medium. HBPC/ci37 cells were induced to differentiate by replacing the pericyte medium with pericyte differentiation medium, which was consisted of FBS- and blasticidin S-free pericyte medium; HASTR/ci35 cells were induced to differentiate by replacing the astrocyte culture medium with astrocyte differentiation medium, which was consisted of FBS- and blasticidin S-free astrocyte growth medium supplemented with 1 mM adenosine 3′,5′-cyclic monophosphate sodium salt monohydrate. After the differentiation media were added, both cell lines were cultured at 37 °C for 24 h. To start a coculture, HBMEC/ci18 cells were seeded on the inner side of the HBPC/ci37 cell culture insert at a density of 1.0 × 10^5 cells. […]

[1] = Permeability assay with permeable and nonpermeable compounds in the human in vitro BBB model; conditions: human
Protocol: as §1

[2] = test system: human in vitro BBB model (HBMEC/ci18, HBPC/ci37, HASTR/ci35); experiment: as above
Protocol: as §1

Compound: O=[N+]([O-])c1ccc(N[C@H]2C(O)O[C@H](CO)[C@@H](O)[C@@H]2O)c2nonc12 (stereo partly shown) [2-NBDG]
Efflux Ratio Mean (Glut1; mean of 4 independent experiments): 1.1
Efflux Ratio (Pe (B to A)/Pe (A to B)) (Glut1; single independent experiment): 1.01

Compound: Cn1c(=O)c2c(ncn2C)n(C)c1=O [caffeine]
Papp at 5 μM [1]: 1160 ± 492 ×10⁻⁶ cm/s

Pe value (permeability coefficient) [2]: 90.2 ± 23.1 × 10^−6 cm/s
Compound: Lucifer Yellow

From article PMC9988422, “Usefulness of a humanized tricellular static transwell blood–brain barrier model as a microphysiological system for drug development applications. - A case study based on the benchmark evaluations of blood-brain barrier microphysiological system” (Regenerative Therapy, 2023)
